Laboratory results taken from article PMC9027532, “Preclinical Pharmacokinetic Studies of a Novel Diuretic Inhibiting Urea Transporters” (Molecules, 2022).

Experiment: in vitro
Format: in vitro ADME
Conditions: plasma
Method: The plasma protein binding (PPB) and blood plasma ratio (BPR) are crucial parameters influencing the drug distribution and elimination in plasma. The PPB profile of 25a was evaluated by equilibrium dialysis, a classic method to assess the interactions of small molecules with proteins. The PPB of 25a was tested at 50, 500, and 2500 ng/mL (Table 7). […] When considering the allometric scaling of PK parameters, the species difference of protein binding between humans and rats should be considered.
The plasma protein binding (PPB) ratio of 25a was assessed via equilibrium dialysis in SD rats and human plasma. Four hundred microliters of plasma containing 50, 500, or 2500 ng/mL 25a were loaded into the dialysis bags (plasma side), and the bags were placed into tubes containing 4 mL of the dialysis buffer (buffer side). The tubes were then rotated at approximately 100 rpm in a humidified incubator with 5% CO2 at 37 ± 1 °C for 5 h.
After the 5 h dialysis, aliquots of 50 μL samples were taken from both the buffer and the plasma sides. An equal volume of the opposite blank matrix (buffer or plasma) was added to each sample to reach a final volume of 100 μL with a volume ratio of plasma to dialysis buffer at 1:1 (v/v). […] The PPB ratio (%) was calculated by PPB% = 100% × (1 − Conc.buffer side/Conc.plasma side).

CC(=O)CC(c1ccccc1)c1c(O)c2ccccc2oc1=O (stereo not shown) [warfarin]
fraction unbound at 5 h: 0.015
